The subject of experiment [1] is MCF7. As to the kind of experiment: cells. Conditions: Homo sapiens, MCF7, 72 h.
Description: Antiproliferative activity against human MCF7 cells incubated for 72 hrs by MTT assay
Experiment [2] addresses T1, 3-hydroxy-3-methylglutaryl-coenzyme A reductase (Homo sapiens, UniProt P04035).
T1 sequence (P04035 whole entry): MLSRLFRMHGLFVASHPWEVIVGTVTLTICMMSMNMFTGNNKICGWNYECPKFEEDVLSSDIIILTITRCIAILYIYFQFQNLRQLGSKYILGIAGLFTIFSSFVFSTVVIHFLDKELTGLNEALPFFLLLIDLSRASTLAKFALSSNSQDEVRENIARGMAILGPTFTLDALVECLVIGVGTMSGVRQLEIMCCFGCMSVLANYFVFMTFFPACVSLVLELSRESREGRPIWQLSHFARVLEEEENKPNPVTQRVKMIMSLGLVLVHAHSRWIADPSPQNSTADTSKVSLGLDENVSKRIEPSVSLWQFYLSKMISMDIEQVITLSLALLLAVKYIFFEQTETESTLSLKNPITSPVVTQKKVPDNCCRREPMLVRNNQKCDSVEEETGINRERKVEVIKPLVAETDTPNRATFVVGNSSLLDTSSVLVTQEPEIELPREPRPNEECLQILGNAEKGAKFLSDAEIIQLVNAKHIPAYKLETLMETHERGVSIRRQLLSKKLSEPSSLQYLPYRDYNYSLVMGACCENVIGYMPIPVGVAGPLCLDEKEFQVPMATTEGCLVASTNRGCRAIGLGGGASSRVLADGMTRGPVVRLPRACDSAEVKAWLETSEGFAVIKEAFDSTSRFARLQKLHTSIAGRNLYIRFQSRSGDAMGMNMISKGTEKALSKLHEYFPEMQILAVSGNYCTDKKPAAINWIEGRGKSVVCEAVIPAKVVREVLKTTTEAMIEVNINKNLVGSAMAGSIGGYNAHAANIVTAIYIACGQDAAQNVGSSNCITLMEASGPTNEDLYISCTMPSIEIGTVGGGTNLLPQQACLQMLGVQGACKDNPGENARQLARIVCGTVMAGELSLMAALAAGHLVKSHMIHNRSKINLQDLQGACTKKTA
The experiment is described as follows: Degradation of HMGCR (unknown origin) expressed in CHO-7 cells. It counts as cell-based.

Experiment [3] concerns the target T2, Protein cereblon/Protein deacetylase HDAC6 (Homo sapiens, UniProt Q9UBN7+Q96SW2). The experiment is described as follows: PROTAC activity at CRBN/HDAC6 (unknown origin) assessed as degradation of HDAC6. It counts as protein assay.
Target sequence in this assay (Q9UBN7 whole entry): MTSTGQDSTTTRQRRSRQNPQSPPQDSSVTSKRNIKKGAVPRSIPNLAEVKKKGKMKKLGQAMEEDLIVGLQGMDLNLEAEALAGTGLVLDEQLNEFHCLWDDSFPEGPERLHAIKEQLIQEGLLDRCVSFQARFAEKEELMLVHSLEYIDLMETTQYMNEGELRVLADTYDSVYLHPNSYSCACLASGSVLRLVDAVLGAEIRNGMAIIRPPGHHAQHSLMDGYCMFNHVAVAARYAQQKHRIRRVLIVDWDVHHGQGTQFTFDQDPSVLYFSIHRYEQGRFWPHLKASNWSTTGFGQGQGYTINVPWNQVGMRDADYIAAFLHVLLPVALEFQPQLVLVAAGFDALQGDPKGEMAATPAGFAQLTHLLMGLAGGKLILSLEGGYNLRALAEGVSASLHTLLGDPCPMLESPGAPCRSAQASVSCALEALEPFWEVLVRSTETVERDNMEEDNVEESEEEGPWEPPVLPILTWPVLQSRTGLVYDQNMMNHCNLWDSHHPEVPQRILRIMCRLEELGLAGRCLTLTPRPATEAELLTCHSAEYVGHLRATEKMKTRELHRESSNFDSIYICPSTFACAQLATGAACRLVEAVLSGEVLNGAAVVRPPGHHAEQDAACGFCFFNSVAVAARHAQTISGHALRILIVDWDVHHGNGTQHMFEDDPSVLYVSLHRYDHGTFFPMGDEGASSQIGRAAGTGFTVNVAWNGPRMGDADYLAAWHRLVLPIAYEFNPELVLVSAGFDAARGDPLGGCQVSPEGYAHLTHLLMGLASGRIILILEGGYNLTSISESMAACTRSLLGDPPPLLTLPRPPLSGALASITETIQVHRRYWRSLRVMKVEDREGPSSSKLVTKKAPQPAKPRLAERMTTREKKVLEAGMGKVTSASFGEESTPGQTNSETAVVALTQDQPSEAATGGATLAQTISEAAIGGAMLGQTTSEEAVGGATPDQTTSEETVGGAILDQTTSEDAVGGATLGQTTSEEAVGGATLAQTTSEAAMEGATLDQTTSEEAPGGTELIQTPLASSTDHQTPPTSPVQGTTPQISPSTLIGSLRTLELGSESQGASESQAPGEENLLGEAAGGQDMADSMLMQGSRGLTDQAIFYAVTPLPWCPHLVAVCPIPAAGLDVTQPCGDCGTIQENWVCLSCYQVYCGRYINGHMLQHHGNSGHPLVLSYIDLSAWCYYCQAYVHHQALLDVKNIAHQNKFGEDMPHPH
Target sequence in this assay (Q96SW2 whole entry): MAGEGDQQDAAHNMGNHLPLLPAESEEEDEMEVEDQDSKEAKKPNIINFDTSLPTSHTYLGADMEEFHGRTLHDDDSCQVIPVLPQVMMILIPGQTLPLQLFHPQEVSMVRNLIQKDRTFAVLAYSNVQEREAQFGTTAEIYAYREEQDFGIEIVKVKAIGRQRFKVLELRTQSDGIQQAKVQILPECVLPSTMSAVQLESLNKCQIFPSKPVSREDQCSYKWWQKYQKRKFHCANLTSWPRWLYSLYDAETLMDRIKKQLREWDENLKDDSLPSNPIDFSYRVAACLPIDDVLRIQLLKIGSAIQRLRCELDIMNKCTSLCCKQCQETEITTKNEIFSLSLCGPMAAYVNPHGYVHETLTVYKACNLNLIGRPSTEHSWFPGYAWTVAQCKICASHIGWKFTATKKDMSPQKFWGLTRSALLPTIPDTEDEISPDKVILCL
The target of experiment [4] is T2, Protein cereblon/Protein deacetylase HDAC6. The experiment is described as follows: PROTAC activity at CRBN/HDAC6 (unknown origin) assessed as degradation of HDAC6 relative to control. It counts as protein assay.
Target sequence in this assay (Q96SW2 whole entry, looked up): as the sequence (Q96SW2 whole entry) above
Target sequence in this assay (Q9UBN7 whole entry, looked up): as the sequence (Q9UBN7 whole entry) above
Experiment [5] has as its target T3, Kelch-like ECH-associated protein 1/Bromodomain-containing protein 4 (Homo sapiens, UniProt O60885+Q14145). The experiment is described as follows: PROTAC activity at Keap1/BRD4 in human MDA-MB-231 cells assessed as degradation of BRD4 measured after 5 hrs. It is filed as cell-based.
Experiment [6] concerns the target T3, Kelch-like ECH-associated protein 1/Bromodomain-containing protein 4. The experiment is described as follows: PROTAC activity at Keap1/BRD4 in human MDA-MB-231 cells assessed as degradation of BRD4 measured after 10 hrs. It is filed as cell-based.
In experiment [7] the target is E3 ubiquitin-protein ligase RNF114/Bromodomain-containing protein 4 (Homo sapiens, UniProt O60885+Q9Y508). As to the kind of experiment: PROTAC activity at RNF114/BRD4 (unknown origin) assessed as degradation of BRD4 incubated for 30 mins SDS-PAGE based fluorescence analysis.
For experiment [8], the target named is E3 ubiquitin-protein ligase RNF114 (Homo sapiens, UniProt Q9Y508). As to the kind of experiment: Inhibition of RNF114 (unknown origin).
A short description of experiment [9]: Antiviral activity against IAV WSN/33 infected in luciferase tagged HEK293T cells assessed as suppression of de novo viral replication incubated for 24 hr. Conditions: Influenza A virus, WSN/33, HEK-293T. It counts as functional, cell-based.
In experiment [10] the test system is LNCaP. The experiment is described as follows: Cytotoxicity against human LNCap cells. It counts as functional, cell-based.
Experiment [11] relates to CWR22R. As to the kind of experiment: Cytotoxicity against human 22Rv1 cells. It counts as functional, cell-based.
In experiment [12] the test system is DU-145. The experiment is described as follows: Cytotoxicity against human DU-145 cells. It is filed as functional, cell-based.
The target of experiment [13] is Kelch-like ECH-associated protein 1/Cyclin-dependent kinase 9 (Homo sapiens, UniProt P50750+Q14145). The experiment is described as follows: PROTAC activity at Keap1/CDK9 in human MOLT4 cells measured after 16 hrs. It counts as cell-based. The settings on record: molt-4.
Experiment [14] has as its target T4, von Hippel-Lindau disease tumor suppressor/3-hydroxy-3-methylglutaryl-coenzyme A reductase (Homo sapiens, UniProt P04035+P40337). The experiment is described as follows: PROTAC activity at VHL/recombinant HMGCR in human HepG2 cells assessed as degradation of HMGCR measured at 0.1 uM after 16 hrs relative to control. It counts as cell-based.
Target sequence in this assay (P40337 whole entry, looked up, one chain of several): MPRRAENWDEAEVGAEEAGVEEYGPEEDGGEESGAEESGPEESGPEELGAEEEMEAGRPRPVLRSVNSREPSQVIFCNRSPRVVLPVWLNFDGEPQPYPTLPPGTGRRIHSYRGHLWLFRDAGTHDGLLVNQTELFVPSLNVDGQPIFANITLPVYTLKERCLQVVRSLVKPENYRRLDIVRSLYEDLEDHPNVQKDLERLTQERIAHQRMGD
The target in experiment [15] is T1, 3-hydroxy-3-methylglutaryl-coenzyme A reductase. As to the kind of experiment: Inhibition of HMGCR (unknown origin).
Experiment [16] has as its target T4, von Hippel-Lindau disease tumor suppressor/3-hydroxy-3-methylglutaryl-coenzyme A reductase. The experiment is described as follows: PROTAC activity at VHL/recombinant HMGCR in human Insig-depletion HepG2 cells assessed as degradation of HMGCR measured at 1 uM after 16 hrs relative to control. It is filed as cell-based.
Target sequence in this assay (P40337 whole entry, looked up, one chain of several): as above
The target is the same in experiment [17]. The experiment is described as follows: PROTAC activity at VHL/recombinant HMGCR in human Insig-depletion HepG2 cells assessed as degradation of HMGCR measured after 16 hrs. It counts as cell-based.
Target sequence in this assay (P40337 whole entry, one chain of several): as the sequence (P40337 whole entry, looked up, one chain of several) above
Experiment [18] has as its system HFF-1. The experiment is described as follows: Cytotoxicity against human HFF-1 cells incubated for 72 hrs by CCK-8 assay. It is filed as functional, cell-based. Conditions: HFF-1, 72 h. (In general: Tetrazolium assays rely on reduction of a dye to a coloured formazan, in cell work by metabolically active cells.)
The subject of experiment [19] is HeLa. The experiment is described as follows: Cytotoxicity against human HeLa cells incubated for 72 hrs by CCK-8 assay. It counts as functional, cell-based.

T3 sequence (Q14145 whole entry, looked up, other chains not shown): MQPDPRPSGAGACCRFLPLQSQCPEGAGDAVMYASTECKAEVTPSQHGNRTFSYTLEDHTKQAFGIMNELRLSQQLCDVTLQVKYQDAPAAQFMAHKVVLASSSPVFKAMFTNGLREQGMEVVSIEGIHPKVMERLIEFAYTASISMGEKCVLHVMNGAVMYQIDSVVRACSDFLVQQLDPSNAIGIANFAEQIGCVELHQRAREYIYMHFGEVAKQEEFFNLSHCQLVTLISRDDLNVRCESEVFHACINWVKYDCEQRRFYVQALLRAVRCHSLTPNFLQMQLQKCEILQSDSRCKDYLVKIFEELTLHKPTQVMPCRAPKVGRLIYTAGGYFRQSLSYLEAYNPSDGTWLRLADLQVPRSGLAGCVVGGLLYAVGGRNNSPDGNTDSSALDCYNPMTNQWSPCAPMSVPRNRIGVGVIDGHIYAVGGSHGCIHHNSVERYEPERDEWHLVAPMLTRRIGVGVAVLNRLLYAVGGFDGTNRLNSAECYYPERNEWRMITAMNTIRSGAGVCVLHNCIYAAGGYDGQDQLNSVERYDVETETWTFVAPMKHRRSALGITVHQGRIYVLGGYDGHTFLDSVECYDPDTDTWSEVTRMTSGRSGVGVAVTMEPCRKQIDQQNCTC
Chain of Kelch-like ECH-associated protein 1/Cyclin-dependent kinase 9 (P50750 whole entry): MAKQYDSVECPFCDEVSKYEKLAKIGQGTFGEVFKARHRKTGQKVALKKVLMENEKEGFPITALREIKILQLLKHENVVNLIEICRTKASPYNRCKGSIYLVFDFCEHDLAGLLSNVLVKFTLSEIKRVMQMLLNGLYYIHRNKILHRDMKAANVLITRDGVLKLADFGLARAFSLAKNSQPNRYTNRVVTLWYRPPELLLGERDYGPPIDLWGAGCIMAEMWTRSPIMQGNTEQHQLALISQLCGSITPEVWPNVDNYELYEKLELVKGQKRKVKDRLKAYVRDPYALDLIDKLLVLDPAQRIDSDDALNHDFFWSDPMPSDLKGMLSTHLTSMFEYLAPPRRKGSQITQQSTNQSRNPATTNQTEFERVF
Chain of Kelch-like ECH-associated protein 1/Cyclin-dependent kinase 9 (Q14145 whole entry): as the sequence (Q14145 whole entry, looked up, other chains not shown) above
Chain of E3 ubiquitin-protein ligase RNF114/Bromodomain-containing protein 4 (Q9Y508 whole entry, looked up, other chains not shown): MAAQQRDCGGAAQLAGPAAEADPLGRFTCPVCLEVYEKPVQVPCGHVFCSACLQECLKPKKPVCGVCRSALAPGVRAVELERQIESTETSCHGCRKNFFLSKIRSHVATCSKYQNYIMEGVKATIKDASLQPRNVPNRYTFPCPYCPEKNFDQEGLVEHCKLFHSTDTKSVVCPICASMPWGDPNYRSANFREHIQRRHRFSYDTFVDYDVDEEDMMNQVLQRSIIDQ
Chain of E3 ubiquitin-protein ligase RNF114 (Q9Y508 whole entry): as the sequence (Q9Y508 whole entry, looked up, other chains not shown) above

What is called IC50 is the concentration that inhibits the measured activity by half. `COc1c(O)cc(O)c2c(=O)cc(-c3ccccc3)oc12` [WOGONIN] showed an IC50 in experiment [1] of 30 nM.
As to `C=CCC(O)(CC=C)CCC[C@@H](C)[C@H]1CC[C@H]2[C@@H]3[C@@H](O)C=C4C(C)(C)[C@@H](O)CC[C@]4(C)[C@H]3CC[C@]12C`, the DC50 in experiment [2] came out at 390 nM.
A word on the Emax: it is the size of the effect at its maximum, as opposed to the concentration needed. As for `O=C(CCCO/N=C1/C(=C2/C(=O)N(Cc3cn(CCOCCNc4cccc5c4C(=O)N(C4CCC(=O)NC4=O)C5=O)nn3)c3ccccc32)Nc2ccccc21)NO` (centres undefined), in experiment [3], the DC50 came out at 109 nM. Further, in experiment [4], the Emax came to 88%.
As for `CC1=C(O)C(=O)C=C2C1=CC=C1[C@@]2(C)CC[C@@]2(C)[C@@H]3C[C@](C)(C(=O)NCCCOCCOCCOCCCNC(=O)C[C@@H]4N=C(c5ccc(Cl)cc5)c5c(sc(C)c5C)-n5c(C)nnc54)CC[C@]3(C)CC[C@]12C`, the DC50 in [5] was 29 nM; in [6], 9.6 nM.
With `COC(=O)C[C@H]1[C@]2(C)C3=C(C)C(c4ccoc4-c4ccc(C(=O)NCCCNC(=O)C[C@@H]5N=C(c6ccc(Cl)cc6)c6c(sc(C)c6C)-n6c(C)nnc65)cc4)C[C@H]3C[C@@H]2[C@@H]2OC(=O)[C@]3(C)C=CC(=O)[C@@]1(C)[C@@H]23` (some centres undefined), the DC50 in experiment [7] was determined as 10 nM. In experiment [8], the IC50 was found to be 240 nM.
As for `C/C(=C\CC/C(C)=C/C[C@]1(O)C(=O)c2c(O)cc(C)c3c(O)c(C)c(O)c(c23)C1=O)CC/C=C(\CO)CC[C@@H](O)C(C)(C)O`, the IC50 in experiment [9] is 6.6 µM.
The EC50 is the concentration that produces a half-maximal response. Read a low EC50 as an effect from little substance. On to `COc1cc(/C=C/C(=O)N2CCC=CC2=O)cc(OC)c1OCCN1CCN(C(=O)CN2CCC(C(=O)Nc3ncc(SCc4ncc(C(C)(C)C)o4)s3)CC2)CC1`, for which the EC50 in experiment [10] is 3.2 nM; in experiment [11], 6.4 nM; in [12], 8.5 nM. This compound also yielded a DC50 in experiment [13] of 9 nM.
On to `Cc1ncsc1-c1ccc(CNC(=O)[C@@H]2C[C@@H](O)CN2C(=O)[C@H](NC(=O)CCCCCCCCCCNC(=O)OC2C[C@@H](C)C=C3C=C[C@H](C)[C@H](CC[C@@H](O)C[C@@H](O)CC=O)[C@H]32)C(C)(C)C)cc1` (some centres undefined), for which the Emax in experiment [14] was found to be 56%; in [16], 76%. The compound further had an IC50 in experiment [15] of 250 nM. The DC50 in experiment [17] came out at 120 nM.
Take `Cc1ncsc1-c1ccc([C@H](C)NC(=O)[C@@H]2CC(OC(=O)CCCCn3cc(CNC(=O)CC[C@H](NC(=O)c4ccc(NCc5cnc6[nH]c(N)nc(=O)c6n5)cc4)C(=O)O)nn3)CN2C(=O)[C@@H](NC(=O)COCCCOCCNC(=O)C[C@@H]2N=C(c3ccc(Cl)cc3)c3c(sc(C)c3C)-n3c(C)nnc32)C(C)(C)C)cc1` (some centres undefined): the IC50 is > 10 µM in experiment [18] and 246 nM in [19].
